Values of other authors, collected in PMC2803440 (Current Chemical Genomics, 2008).

Target: recombinant variant of PON1

Ki: 3000 nM
Structure (SMILES): Oc1ccc2ccccc2n1 [Compound 2HQ, 2-hydroxyquinoline]
